Experimental data published in patent US20150335678A1, “METHOD OF ACTIVATING STEM CELLS IN AN ANIMAL AND THE USE OF CHLORINE DIOXIDE FOR PREPARING MEDICINES FOR ACTIVATING STEM CELLS IN AN ANIMAL” (priority 2012, published 2015).

What was measured:
[1] = tested on: skin and eye mucous membrane; conditions: content of chlorine dioxide 9.7˜11.4 mg/L; 48 h; cited from earlier work
[2] = tested on: androgenetic alopecia (hair-loss patients); assay: Androgenetic alopecia patients, solution smeared on alopecia area (Example 1); conditions: for increased ratio of hair density vs before administration, Region 1 (center of crown) / increased ratio of hair density vs before administration, Region 2 (middle of crown and forehead) / increased ratio of hair density vs before administration, Region 3 (on the forehead) / increased ratio of hair density vs before administration, Region 4 (both sides of forehead): 5.1 cm2 circle
Description: Drug preparation: The first solution was a mixed solution made of sodium chlorite with the concentration of 7.47% and sodium chloride with the concentration of 1.59% with deionized water; the second solution was made of citric acid with the concentration of 16.7% with deionized water.
Dosage and administration: Same volume of solutions were taken out from different vessels with different volumes and put into the suitable glass or plastic cups prepared. Allow the solution to mix for 3-5 minutes and then filter the solution with 0.22 μm filter membrane of double-deck. The alopecia area was smeared with the solution by swab, waiting for 1-2 hours before cleaning the head, once a day. The medicine was taken according to the course of treatment. The first course of treatment was 15-25 days, the second course of treatment began after 2-5 months of drug withdrawal. The administration days were 10-15 days from the second course of treatment, and the next course of treatment began after 2-5 months of drug withdrawal.
The subjects consisted of 42 male hair-loss patients and one patient (22-68 years old.) They were willing to use the drug (hereinafter referred to as administration). See Table 1 for specific information.
To select four circular regions (5.1 cm^2) with diameter of 2.54 cm in the following regions: the center of crown (in front of the whirl on the head, region 1), the middle of crown and forehead (region2), on the forehead (region 3), both sides of forehead (region 4), and calculate the amount of hair through digital photographs respectively on the 10th day (t1), the first month (t2), second month (t3) after administration of the first course of treatment, and the second month (t4) after administration of the second course of treatment, as well as the second month (t5) after administration of the third course of treatment. Then the increased ratios of hair density in different regions were worked out by comparing the amount of hair before administration. (See Table 2)

[3] = tested on: hip arthritis (osteoarthritis); assay: Hip arthritis patients: VAS pain intensity, WOMAC, tolerance (Example 5); assay type: in vivo, human; conditions: 11 hip arthritis patients; for WOMAC mean (±SD): beginning 55.03 (±26.63); for Doctor VAS pain intensity, mean (±SD), 0-100: beginning 55.23 (±9.66); for Patients VAS pain intensity, mean (±SD), 0-100: beginning 58.32 (±8.25)
Description: To smear the solution over the skin of hip arthritis with swab immediately, once a day for consecutive 20 days. Then stop the administration for three months, and then began continuous treatment for 20 days. Clean and disinfect the regions before treatment, conduct local anesthetic 30 minutes before the operation.
The subjects who joined in the treatment group as volunteers consisted of 11 patients with hip arthritis (5 male, aged from 40 to 70 years old and 6 female, aged from 40 to 65 years old.). Case histories were recorded at the third and the sixth month by collecting personal and data of human body (height, body weight, BMI, blood pressure and heart rate.) Then evaluate the following parameters:
Pain intensity: VAS was used, ranging from 0 (normal) to 100 (maximum intensity), it was conducted by the doctor and patient:
Seriousness of the illness: Womac, namely, self-assessment of hip arthritis that consists of 24 items was used to detect the development and effect of the treatment.

[4] = tested on: APTT, PT and TT (blood coagulation and fibrinolysis systems); assay: Side effects in lower limb DVT patients: APTT, PT, TT and pain
Description: Chlorine dioxide solution was administered to the patients through the contralateral femoral artery puncture (sick side) for 14 consecutive days, a dose of 10 ml/body/day. Before injection, use 2 ml-5 ml lidocaine of 2% to perform infiltration anesthesia at puncture point.

[5] = tested on: Helicobacter pylori; assay: hp-positive gastric ulcer patients: HP negative conversing, rapid urease test; assay type: in vivo, human; conditions: 30 patients per group
Description: The subjects consisted of 90 gastric ulcer patients (50 male and 40 female) of hp-positive aged from 33 to 75 years old (average age: 41 years old). The subjects were randomly assigned to treatment group and control group with 30 patients in treatment group and 30 in control group 1 and 30 in control group 2 respectively.
Allow the solution to mix for 3-5 minutes. The capsule that containing activating agent of stem cells was made by injecting the mixed solution into the soft capsule of number 0.
The capsule that containing activating agent of stem cells was administered to the patients in treatment group three times a day and a pill each time; 30 minutes before meals, patients in control group 1 took orally 15 mg colloidal bismuth and 100 mg pectin tinidazole for three times a day. And 20 mg Omeprazole two times a day; patients in control group 2 took orally […] amoxicillin and 500 mg clindamycin three times a day and 20 mg esomeprazole twice a day before meals. Both groups were administered for a consecutive week. To observe the improvement of the clinical symptoms of the three cases two weeks after administration, such as stomachache, nausea and sour regurgitation. […]
Criteria for measuring the effects: the changes of conditions before and after treatment and the time the symptoms disappear were recorded precisely. […]

[6] = tested on: wound; conditions: clinical trial report No. NCT01341041, Rhode Island Hospital; cited from earlier work
[7] = 2-6 days after administration, n=43, NaClO2 7.47% + citric acid 16.7% 1:1, topical once a day
[8] = 3-5 days after administration, n=43, NaClO2 7.47%/NaCl 1.59% + citric acid 16.7% mixed 1:1, smeared on alopecia area once a day
[9] = 15-25 days after administration, n=43, NaClO2 7.47% + citric acid 16.7% 1:1, topical once a day
[10] = T1: 10th day, first course, n=43, NaClO2 7.47% + citric acid 16.7% topical
[11] = T2: first month after administration of first course, n=43, NaClO2 7.47% + citric acid 16.7% topical
[12] = T3: second month after administration of first course, n=43, NaClO2 7.47% + citric acid 16.7% topical
[13] = T4: second month after administration of second course, n=43, NaClO2 7.47% + citric acid 16.7% topical
[14] = T5: second month after administration of third course, n=43, NaClO2 7.47% + citric acid 16.7% topical
[15] = inventor's observation, chlorine dioxide solution applied every day
[16] = medicine stopped for 2-5 months after a course of treatment, n=43, NaClO2 7.47% + citric acid 16.7% 1:1, topical once a day

Structure (SMILES): [O][Cl+][O-] [chlorine dioxide solution, chlorine dioxide]
- stimulation score to skin and eye mucous membrane [1]: 0
- Effective rate: hair in the affected area fell off quickly [2, 7]: 100%
- No. effective patients: hair in the affected area fell off quickly [2, 7]: 43
- Effective rate: beard like new hair regrew, seen by naked eyes [2, 8]: 98%
- No. effective patients: beard like new hair regrew, seen by naked eyes [2, 8]: 42
- Effective rate: new hair grew persistently [2, 9]: 93%
- No. effective patients: new hair grew persistently [2, 9]: 40
- increased ratio of hair density vs before administration, Region 1 (center of crown) ([2]; T1: 10th day, first course, digital photographs, n=43, NaClO2 7.47% + citric acid 16.7% topical once a day): 123%
- increased ratio of hair density vs before administration, Region 2 (middle of crown and forehead) [2, 10]: 117%
- increased ratio of hair density vs before administration, Region 3 (on the forehead) [2, 10]: 133%
- increased ratio of hair density vs before administration, Region 4 (both sides of forehead) [2, 10]: 102%
- increased ratio of hair density vs before administration, Region 1 (center of crown) [2, 11]: 137%
- increased ratio of hair density vs before administration, Region 2 (middle of crown and forehead) [2, 11]: 129%
- increased ratio of hair density vs before administration, Region 3 (on the forehead) [2, 11]: 134%
- increased ratio of hair density vs before administration, Region 4 (both sides of forehead) [2, 11]: 157%
- increased ratio of hair density vs before administration, Region 1 (center of crown) [2, 12]: 154%
- increased ratio of hair density vs before administration, Region 2 (middle of crown and forehead) [2, 12]: 142%
- increased ratio of hair density vs before administration, Region 3 (on the forehead) [2, 12]: 153%
- increased ratio of hair density vs before administration, Region 4 (both sides of forehead) [2, 12]: 163%
- increased ratio of hair density vs before administration, Region 1 (center of crown) [2, 13]: 196%
- increased ratio of hair density vs before administration, Region 2 (middle of crown and forehead) [2, 13]: 185%
- increased ratio of hair density vs before administration, Region 3 (on the forehead) [2, 13]: 201%
- increased ratio of hair density vs before administration, Region 4 (both sides of forehead) [2, 13]: 260%
- increased ratio of hair density vs before administration, Region 1 (center of crown) [2, 14]: 354%
- increased ratio of hair density vs before administration, Region 2 (middle of crown and forehead) [2, 14]: 402%
- increased ratio of hair density vs before administration, Region 3 (on the forehead) [2, 14]: 396%
- increased ratio of hair density vs before administration, Region 4 (both sides of forehead) [2, 14]: 433%
- time until new hair could grow, most of patients ([2]; after administration, topical once a day): 2 to 3 days
- duration of stabbing pain after application ([2]; human, in vivo): 15 to 30 min
- time until new hair grows in alopecia area with hair [2, 15]: third to the fifth day
- time until new hair grows in alopecia area without hair [2, 15]: about 20 days
- Effective rate: hair recovered by one level, judged by naked eyes [2, 16]: 81%
- No. effective patients: hair recovered by one level, judged by naked eyes [2, 16]: 35
- skin reaction in the administered area ([2]; when administered for three days, red spot like solidified bleeding wound): micro wound was produced
- time until pain and itch during administration disappeared completely ([3]; topical with DMSO): about an hour
- tolerance ([3]; topical with DMSO): without local or systemic anaphylactic reaction
- WOMAC mean (±SD) ([3]; sixth month, topical with DMSO): 6.54 (±5.86)
- Doctor VAS pain intensity, mean (±SD), 0-100 ([3]; sixth month, topical with DMSO): 7.11 (±6.93)
- Patients VAS pain intensity, mean (±SD), 0-100 ([3]; sixth month, topical with DMSO): 6.32 (±6.53)
- WOMAC mean (±SD) ([3]; third month, topical with DMSO): 20.11 (±22.53)
- Doctor VAS pain intensity, mean (±SD), 0-100 ([3]; third month, topical with DMSO): 20.03 (±7.32)
- Patients VAS pain intensity, mean (±SD), 0-100 ([3]; third month, NaClO2 8%/NaCl 2% + citric acid 15% 1:1, DMSO 1:1, smeared once a day 20 days, three months off, 20 days): 18.24 (±7.25)
- duration of stabbing pain after injection without anesthetic ([4]; almost all the patients, day one after administration): 30 min
- APTT, PT and TT, before vs after administration ([4]; before, day 7 and day 14 after administration, lower limb DVT patients, 10 ml/body/day femoral artery puncture): no significant differences
- side effects by administration ([4]; lower limb DVT patients, 10 ml/body/day femoral artery puncture, 14 days): no occurrence of side effects
- HP negative conversing (%) ([5]; rapid urease test after 30 days): 96.6%
- HP negative conversing (No.) ([5]; rapid urease test of gastric mucosa after 30 days): 29
- effects compared with normal saline in wound irrigation [6]: promote healing and reduce scar formation
